Data published in patent US20230085307A1, “PYRIDAZINONE COMPOUND AND HERBICIDE” (NISSAN CHEMICAL CORPORATION, priority 2019, published 2023).

Legend:
late watergrass = test: Test Example 2: herbicidal activity, application during weed generation under submerged conditions (Table 17, symbol A); format: in vivo, late watergrass (Echinochloa oryzicola); settings: AAH 320 g/ha; application during weed generation, submerged conditions
Description: (§1) [Test Example 2] Herbicidal Activity Test by Application during Weed Generation under Submerged Conditions After alluvial soil was placed into 1/10000 are of Wagner pot, water was poured and mixed to form a submerged condition having a water depth of 4 cm. Seeds of late watergrass, Japanese bulrush, and oval-leafed pondweed were sowed in a mixed manner in the aforementioned pot, and the pot was placed in a greenhouse at 25° C. to 30° C. for growth of the plants. When late watergrass, Japanese bulrush, and oval-leafed pondweed were grown to one leaf stage to two leaf stage, the emulsion agent of the compound of the present invention prepared according to Formulation Example 2 was diluted with water so as to achieve a predetermined herbicide amount, and the diluted emulsion agent was applied to the surface of the water. Three weeks after the herbicide application, the effect of the herbicide on each plant was evaluated according to the criteria of Test Example 1.

Japanese bulrush = test: Test Example 2: herbicidal activity, application during weed generation under submerged conditions (Table 17, symbol B); format: in vivo, Japanese bulrush (Schoenoplectus juncoides); settings: AAH 320 g/ha; application during weed generation, submerged conditions
Description: as §1

oval-leafed pondweed = test: Test Example 2: herbicidal activity, application during weed generation under submerged conditions (Table 17, symbol C); format: in vivo, oval-leafed pondweed (Monochoria vaginalis); settings: AAH 320 g/ha; application during weed generation, submerged conditions
Description: as §1

barnyard grass [1] = test: Test Example 3: herbicidal effect by foliage application, Wagner pot (Table 18, symbol H); format: in vivo, barnyard grass (Echinochloa crus-galli)
Summary of the method: (§2)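 Plants were sown in alluvial soil held under 0.1–0.5 cm standing water and grown 14 days in a greenhouse at 25–30 °C. An emulsifiable formulation, water-diluted to the set dose, was then sprayed onto the foliage, and effects were scored three weeks later using previously defined criteria.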

Chinese sprangletop = test: Test Example 3: herbicidal effect by foliage application, Wagner pot (Table 18, symbol D); format: in vivo, chinese sprangletop (Leptochloa chinensis)
Summary of the method: as §2

rice flat sedge = test: Test Example 3: herbicidal effect by foliage application, Wagner pot (Table 18, symbol E); format: in vivo, rice flat sedge (Cyperus iria)
Summary of the method: as §2

southern crabgrass [2] = test: Test Example 4: herbicidal effect by soil treatment (Table 19, symbol F); format: in vivo, southern crabgrass (Digitaria ciliaris); settings: amount of applied herbicide 320 g/ha
Summary of the method: (§3)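 Pre-emergence style soil spray: seeds under ~1.5 cm sterilized diluvial soil received a uniform coat of emulsion diluted to the predetermined herbicide amount. Greenhouse 25–30° C; readout at week three on previously defined criteria.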

green foxtail [3] = test: Test Example 4: herbicidal effect by soil treatment (Table 19, symbol G); format: in vivo, green foxtail (Setaria viridis); settings: amount of applied herbicide 320 g/ha
Summary of the method: as §3

barnyard grass [4] = test: Test Example 4: herbicidal effect by soil treatment (Table 19, symbol H); format: in vivo, barnyard grass (Echinochloa crus-galli); settings: amount of applied herbicide 320 g/ha
Summary of the method: as §3

velvetleaf [5] = test: Test Example 4: herbicidal effect by soil treatment (Table 19, symbol M); format: in vivo, velvetleaf (Abutilon theophrasti); settings: amount of applied herbicide 320 g/ha
Summary of the method: as §3

redroot pigweed [6] = test: Test Example 4: herbicidal effect by soil treatment (Table 19, symbol N); format: in vivo, redroot pigweed (Amaranthus retroflexus); settings: amount of applied herbicide 320 g/ha
Summary of the method: as §3

lambsquarters [7] = test: Test Example 4: herbicidal effect by soil treatment (Table 19, symbol O); format: in vivo, lambsquarters (Chenopodium album); settings: amount of applied herbicide 320 g/ha
Summary of the method: as §3

southern crabgrass [8] = test: Test Example 5: herbicidal effect by foliage application, plastic box (Table 20, symbol F); format: in vivo, southern crabgrass (Digitaria ciliaris); settings: 320 g/ha
Summary of the method: (§4)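 Plants were sown into sterilized diluvial soil under about 1.5 cm cover and kept in a greenhouse at 25° C. to 30° C. Fourteen days on, foliage received an even spray of the diluted emulsion. Herbicidal or crop effect was judged three weeks afterwards.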

green foxtail [9] = test: Test Example 5: herbicidal effect by foliage application, plastic box (Table 20, symbol G); format: in vivo, green foxtail (Setaria viridis); settings: 320 g/ha
Summary of the method: as §4

barnyard grass [10] = test: Test Example 5: herbicidal effect by foliage application, plastic box (Table 20, symbol H); format: in vivo, barnyard grass (Echinochloa crus-galli); settings: 320 g/ha
Summary of the method: as §4

velvetleaf [11] = test: Test Example 5: herbicidal effect by foliage application, plastic box (Table 20, symbol M); format: in vivo, velvetleaf (Abutilon theophrasti); settings: 320 g/ha
Summary of the method: as §4

redroot pigweed [12] = test: Test Example 5: herbicidal effect by foliage application, plastic box (Table 20, symbol N); format: in vivo, redroot pigweed (Amaranthus retroflexus); settings: 320 g/ha
Summary of the method: as §4

lambsquarters [13] = test: Test Example 5: herbicidal effect by foliage application, plastic box (Table 20, symbol O); format: in vivo, lambsquarters (Chenopodium album); settings: 320 g/ha
Summary of the method: as §4

wild oat = test: Test Example 5: herbicidal effect by foliage application, plastic box (Table 20, symbol I); format: in vivo, wild oat (Avena fatua); settings: 320 g/ha, foliage application after 14-day growth, evaluated three weeks after application
Summary of the method: as §4

blackgrass = test: Test Example 5: herbicidal effect by foliage application, plastic box (Table 20, symbol J); format: in vivo, blackgrass (Alopecurus myosuroides); settings: 320 g/ha, foliage application after 14-day growth, evaluated three weeks after application
Summary of the method: as §4

Italian ryegrass = test: Test Example 5: herbicidal effect by foliage application, plastic box (Table 20, symbol K); format: in vivo, Italian ryegrass (Lolium multiflorum); settings: 320 g/ha, foliage application after 14-day growth, evaluated three weeks after application
Summary of the method: as §4

windgrass = test: Test Example 5: herbicidal effect by foliage application, plastic box (Table 20, symbol L); format: in vivo, windgrass (Apera spica-venti); settings: 320 g/ha, foliage application after 14-day growth, evaluated three weeks after application
Summary of the method: as §4

chickweed = test: Test Example 5: herbicidal effect by foliage application, plastic box (Table 20, symbol P); format: in vivo, common chickweed (Stellaria media); settings: 320 g/ha, foliage application after 14-day growth, evaluated three weeks after application
Summary of the method: as §4

persian speedwell = test: Test Example 5: herbicidal effect by foliage application, plastic box (Table 20, symbol R); format: in vivo, Persian speedwell (Veronica persica); settings: 320 g/ha, foliage application after 14-day growth, evaluated three weeks after application
Summary of the method: as §4

[14] = amount of applied herbicide 320 g/ha
[15] = foliage application, three weeks after application
[16] = foliage application after 14-day growth, evaluated three weeks after application

Cc1ccc2sc(-c3ccc(OC(F)F)cc3)c(-c3c(O)c(C)nn(C)c3=O)c2c1 [2-459]
herbicidal effect rating, A: late watergrass (late watergrass): 3 (Herbicidal rate of 40% or more and less than 70%)
herbicidal effect rating, B: Japanese bulrush (Japanese bulrush): 0 (Herbicidal rate of 5% or less (almost no effect))
herbicidal effect rating, C: oval-leafed pondweed (oval-leafed pondweed): 0 (Herbicidal rate of 5% or less (almost no effect))
herbicidal effect on H: barnyard grass (barnyard grass [1]; [14]): 3 (Herbicidal rate of 40% or more and less than 70%)
herbicidal effect on D: Chinese sprangletop (Chinese sprangletop; [14]): 0 (Herbicidal rate of 5% or less (almost no effect))
herbicidal effect on E: rice flat sedge (rice flat sedge; [14]): 0 (Herbicidal rate of 5% or less (almost no effect))
herbicidal effect, F: southern crabgrass (southern crabgrass [2]): 0 (Herbicidal rate of 5% or less (almost no effect))
herbicidal effect, G: green foxtail (green foxtail [3]): 0 (Herbicidal rate of 5% or less (almost no effect))
herbicidal effect, H: barnyard grass (barnyard grass [4]): 0 (Herbicidal rate of 5% or less (almost no effect))
herbicidal effect, M: velvetleaf (velvetleaf [5]): 1 (Herbicidal rate of 5% or more and less than 20%)
herbicidal effect, N: redroot pigweed (redroot pigweed [6]): 5 (Herbicidal rate of 90% or more (almost completely withered))
herbicidal effect, O: lambsquarters (lambsquarters [7]): 4 (Herbicidal rate of 70% or more and less than 90%)
F: southern crabgrass, herbicidal effect grade (southern crabgrass [8]; [15]): 0 (Herbicidal rate of 5% or less (almost no effect))
G: green foxtail, herbicidal effect grade (green foxtail [9]; [15]): 0 (Herbicidal rate of 5% or less (almost no effect))
H: barnyard grass, herbicidal effect grade (barnyard grass [10]; [15]): 0 (Herbicidal rate of 5% or less (almost no effect))
M: velvetleaf, herbicidal effect grade (velvetleaf [11]; [15]): 4 (Herbicidal rate of 70% or more and less than 90%)
N: redroot pigweed, herbicidal effect grade (redroot pigweed [12]; [15]): 4 (Herbicidal rate of 70% or more and less than 90%)
O: lambsquarters, herbicidal effect grade (lambsquarters [13]; [15]): 4 (Herbicidal rate of 70% or more and less than 90%)

Cc1ccc(-c2sc3c(Cl)cccc3c2-c2c(O)c(C)nn(C)c2=O)cc1 [4-019]
herbicidal effect rating, A: late watergrass (late watergrass): 4 (Herbicidal rate of 70% or more and less than 90%)
herbicidal effect rating, B: Japanese bulrush (Japanese bulrush): 0 (Herbicidal rate of 5% or less (almost no effect))
herbicidal effect rating, C: oval-leafed pondweed (oval-leafed pondweed): 0 (Herbicidal rate of 5% or less (almost no effect))
herbicidal effect on barnyard grass (H) (barnyard grass [1]; 320 g/ha): 3 (Herbicidal rate of 40% or more and less than 70%)
herbicidal effect on Chinese sprangletop (D) (Chinese sprangletop; 320 g/ha): 4 (Herbicidal rate of 70% or more and less than 90%)
herbicidal effect on rice flat sedge (E) (rice flat sedge; 320 g/ha): 5 (Herbicidal rate of 90% or more (almost completely withered))
herbicidal effect on F: southern crabgrass (evaluation grade 0-5) (southern crabgrass [8]; [16]): 0 (Herbicidal rate of 5% or less (almost no effect))
herbicidal effect on G: green foxtail (evaluation grade 0-5) (green foxtail [9]; [16]): 1 (Herbicidal rate of 5% or more and less than 20%)
herbicidal effect on H: barnyard grass (evaluation grade 0-5) (barnyard grass [10]; [16]): 0 (Herbicidal rate of 5% or less (almost no effect))
herbicidal effect on I: wild oat (evaluation grade 0-5) (wild oat): 3 (Herbicidal rate of 40% or more and less than 70%)
herbicidal effect on J: blackgrass (evaluation grade 0-5) (blackgrass): 0 (Herbicidal rate of 5% or less (almost no effect))
herbicidal effect on K: Italian ryegrass (evaluation grade 0-5) (Italian ryegrass): 3 (Herbicidal rate of 40% or more and less than 70%)
herbicidal effect on L: windgrass (evaluation grade 0-5) (windgrass): 1 (Herbicidal rate of 5% or more and less than 20%)
herbicidal effect on M: velvetleaf (evaluation grade 0-5) (velvetleaf [11]; [16]): 5 (Herbicidal rate of 90% or more (almost completely withered))
herbicidal effect on N: redroot pigweed (evaluation grade 0-5) (redroot pigweed [12]; [16]): 5 (Herbicidal rate of 90% or more (almost completely withered))
herbicidal effect on O: lambsquarters (evaluation grade 0-5) (lambsquarters [13]; [16]): 1 (Herbicidal rate of 5% or more and less than 20%)
herbicidal effect on P: chickweed (evaluation grade 0-5) (chickweed): 5 (Herbicidal rate of 90% or more (almost completely withered))
herbicidal effect on R: persian speedwell (evaluation grade 0-5) (persian speedwell): 4 (Herbicidal rate of 70% or more and less than 90%)
